± gives the expanded uncertainty stated by the source.
Test: xn = mol fraction of the nth substance listed
Conditions: 101.3 kPa, Liquid, Vibrating tube method

COCCOCCOC [2,5,8-trioxanonane] + ClCCCl
mass density [kg/m3]
Conditions | 308.15 K | 313.15 K | 318.15 K | 323.15 K | 328.15 K | 333.15 K
x2 = 0.0252 | – | 928.2 ± 0.25 | 923.14 ± 0.25 | 918.07 ± 0.25 | 912.99 ± 0.25 | 907.88 ± 0.25
x2 = 0.0508 | – | 932.81 ± 0.24 | 927.72 ± 0.24 | 922.62 ± 0.24 | 917.5 ± 0.24 | 912.36 ± 0.24
x2 = 0.0751 | – | 937.26 ± 0.24 | 932.15 ± 0.24 | 927.01 ± 0.24 | 921.85 ± 0.24 | 916.68 ± 0.24
x2 = 0.1 | – | 941.89 ± 0.23 | 936.74 ± 0.23 | 931.58 ± 0.23 | 926.39 ± 0.23 | 921.19 ± 0.23
x2 = 0.1502 | – | 951.65 ± 0.22 | 946.43 ± 0.22 | 941.2 ± 0.22 | 935.95 ± 0.22 | 930.67 ± 0.22
x2 = 0.1999 | – | 961.71 ± 0.22 | 956.42 ± 0.22 | 951.12 ± 0.22 | 945.79 ± 0.22 | 940.45 ± 0.22
x2 = 0.25 | – | 972.4 ± 0.21 | 967.04 ± 0.21 | 961.66 ± 0.21 | 956.26 ± 0.21 | 950.83 ± 0.21
x2 = 0.3002 | – | 983.61 ± 0.2 | 978.16 ± 0.2 | 972.68 ± 0.2 | 967.18 ± 0.2 | 961.67 ± 0.2
x2 = 0.3501 | – | 995.21 ± 0.2 | 989.69 ± 0.2 | 984.14 ± 0.2 | 978.56 ± 0.2 | 972.96 ± 0.2
x2 = 0.4 | 1013.05 ± 0.2 | 1007.46 ± 0.2 | 1001.83 ± 0.19 | 996.19 ± 0.19 | 990.53 ± 0.19 | 984.84 ± 0.19
x2 = 0.45 | 1025.99 ± 0.2 | 1020.29 ± 0.2 | 1014.56 ± 0.2 | 1008.81 ± 0.2 | 1003.05 ± 0.19 | 997.27 ± 0.19
x2 = 0.5003 | 1039.78 ± 0.21 | 1033.98 ± 0.21 | 1028.16 ± 0.2 | 1022.31 ± 0.2 | 1016.44 ± 0.2 | 1010.54 ± 0.2
x2 = 0.5499 | 1054.03 ± 0.22 | 1048.12 ± 0.21 | 1042.19 ± 0.21 | 1036.25 ± 0.21 | 1030.26 ± 0.2 | 1024.25 ± 0.2
x2 = 0.5999 | 1069.2 ± 0.22 | 1063.17 ± 0.22 | 1057.13 ± 0.22 | 1051.05 ± 0.21 | 1044.95 ± 0.21 | 1038.81 ± 0.21
x2 = 0.6501 | 1085.36 ± 0.23 | 1079.21 ± 0.23 | 1073.04 ± 0.23 | 1066.84 ± 0.22 | 1060.6 ± 0.22 | 1054.34 ± 0.22
x2 = 0.7 | 1102.36 ± 0.24 | 1096.08 ± 0.24 | 1089.77 ± 0.24 | 1083.44 ± 0.23 | 1077.08 ± 0.23 | 1070.67 ± 0.23
x2 = 0.75 | 1120.21 ± 0.25 | 1113.78 ± 0.25 | 1107.32 ± 0.25 | 1100.83 ± 0.24 | 1094.32 ± 0.24 | 1087.77 ± 0.24
x2 = 0.8 | 1139.52 ± 0.27 | 1132.93 ± 0.26 | 1126.31 ± 0.26 | 1119.65 ± 0.26 | 1112.98 ± 0.26 | 1106.28 ± 0.25
x2 = 0.8499 | 1159.94 ± 0.28 | 1153.19 ± 0.28 | 1146.4 ± 0.28 | 1139.57 ± 0.27 | 1132.71 ± 0.27 | 1125.84 ± 0.27
x2 = 0.9 | 1181.94 ± 0.3 | 1175 ± 0.29 | 1168.02 ± 0.29 | 1160.99 ± 0.29 | 1153.95 ± 0.28 | 1146.89 ± 0.28
x2 = 0.925 | 1193.47 ± 0.31 | 1186.42 ± 0.31 | 1179.34 ± 0.31 | 1172.21 ± 0.3 | 1165.08 ± 0.3 | 1157.9 ± 0.29
x2 = 0.9494 | 1205.37 ± 0.32 | 1198.22 ± 0.32 | 1191.02 ± 0.31 | 1183.78 ± 0.31 | 1176.54 ± 0.31 | 1169.26 ± 0.3
x2 = 0.975 | 1218.05 ± 0.33 | 1210.78 ± 0.32 | – | – | – | –

Reference: the NIST ThermoML archive (doi:10.1021/je101361u)
